The test system of test [1] is C. albicans CAF2-1 strain. Briefly: Anti-Candida activity (MIC measurement). The test is classed as cell-based. As to conditions: CAF21STRAIN, minimum inhibitory concentration (MIC) by visual inspection, RPMI 1640, 42 to 48 hours at 35° C. The method, then:
(§1) 1. Anti-Candida Activity and Anti-Aspergillus Activity
(§2) (1) Preparation of Fungal Sample
(§3) For the C. albicans CAF2-1 strain, a fungal suspension from a standing culture for 48 hours at 30° C. in a Sabouraud dextrose liquid culture medium (SDB) was diluted with RPMI 1640 medium to adjust a fungal suspension of 1.2×10^3 cells/mL. For the A. fumigatus Tsukuba strain, −80° C. stored strain was diluted with RPMI 1640 medium to adjust to a fungal suspension of 4.5×10^3 cells/mL.
(§4) (2) Preparation of an Agent Dilution Plate
(§5) Using a U-bottomed 96-well plate, 8 samples/plate (A to H) of sample dilution solutions were prepared. On the 2nd to 12th rows were dispensed 10 μL of dimethyl sulfoxide solution. Weighed sample was dissolved in dimethyl sulfoxide to prepare a 2.5 mg/mL solution, 20 μL of this solution was added to the first row of the prepared plate, and 12 steps of two-fold step dilutions (10 μL of solution+10 μL of dimethyl sulfoxide solution) were performed on the plate. This sample dilution solution was dispensed in an amount of 1 μL into a flat-bottomed 96-well plate for MIC measurement to prepare a sample dilution plate.
(§6) (3) Inoculation of Fungal Suspension and Culture
(§7) The fungal suspension prepared in (1) was used in an amount of 99 μL/well to inoculate the flat-bottomed 96-well plate containing 1 μL/well of the test compound dilution prepared in (2), and standing culture was performed aerobically for 42 to 48 hours at 35° C.
(§8) The following representative compounds prepared in the examples were measured for anti-Candida activity and anti-Aspergillus activity by measurement method in (1).

Test [2] has as its system A. fumigatus Tsukuba strain. Kind of test: Anti-Aspergillus activity (MIC measurement). The test is classed as cell-based. As to conditions: minimum inhibitory concentration (MIC) by visual inspection, RPMI 1640, 42 to 48 hours at 35° C. The method, then:
as §1, §2, §3, §4, §5, §6, §7, §8

SMILES strings stand for the structures. ≈ marks a conversion by molar mass, not a printed value.

As usually defined, the MIC is the lowest concentration found to suppress growth. As for `Nc1ncccc1-c1cn(Cc2ccc(OCc3ccccc3)cc2)nn1` [Example 1, 3-(1-(4-Benzyloxy-benzyl)-1H-[1,2,3]triazol-4-yl)-pyridin-2-ylamine], the minimal inhibitory concentration (MIC) is 0.05 µg/mL (≈ 0.14 µM) in test [1] and 0.2 µg/mL (≈ 0.56 µM) in test [2].

In the case of `Cc1ccc(-c2cn(Cc3ccc(OCc4ccccc4)cc3)nn2)cn1` [Example 2, 5-(1-(4-Benzyloxy-benzyl)-1H-[1,2,3]triazol-4-yl)-2-methyl-pyridine], the MIC in test [1] is 3.13 µg/mL (≈ 8.78 µM); in test [2], 1.56 µg/mL (≈ 4.38 µM).

Consider `Nc1ccc(-c2cn(Cc3ccc(OCc4ccccc4)cc3)nn2)cn1` [Example 3, 5-(1-(4-Benzyloxy-benzyl)-1H-[1,2,3]triazol-4-yl)-pyridin-2-ylamine], for which the figures for the MIC in test [1] and in test [2] were 1.56 µg/mL (≈ 4.36 µM) and 0.78 µg/mL (≈ 2.18 µM), respectively.

`Nc1ccc(-c2cn(Cc3ccc(OCc4ccccc4)cc3)nn2)c(N)n1` [Example 4, 3-(1-(4-Benzyloxy-benzyl)-1H-[1,2,3]triazol-4-yl)-pyridin-2,6-diamine]: the MIC was 0.39 µg/mL (≈ 1.05 µM) in test [1] and 0.78 µg/mL (≈ 2.09 µM) in test [2].

Turning to `COCc1ccc(-c2nnn(Cc3ccc(OCc4ccccc4)cc3)n2)c(N)n1` [Example 6, 3-(2-(4-Benzyloxy-benzyl)-2H-tetrazol-5-yl)-6-methoxymethyl-pyridin-2-ylamine], the MIC in test [1] and in test [2] was 1.56 µg/mL (≈ 3.88 µM) in each case.

Regarding `Nc1ccc(-c2nnn(Cc3ccc(OCc4ccccc4)cc3)n2)c(N)n1` [Example 7, 3-(2-(4-Benzyloxy-benzyl)-2H-tetrazol-5-yl)-pyridin-2,6-diamine], the MIC in test [1] was determined as 0.39 µg/mL (≈ 1.04 µM); in test [2] it was 1.56 µg/mL (≈ 4.18 µM).

Turning to `Nc1ncccc1-c1nnc(Cc2ccc(OCc3ccccc3)cc2)s1` [Example 8], the MIC in test [1] is 0.78 µg/mL (≈ 2.08 µM); in test [2], 1.56 µg/mL (≈ 4.17 µM).

Consider `Nc1ccc(-c2nnc(Cc3ccc(OCc4ccccc4)cc3)s2)c(N)n1` [Example 10], for which the minimal inhibitory concentration (MIC) was found to be 3.13 µg/mL (≈ 8.04 µM) in test [1] and 25 µg/mL (≈ 64.2 µM) in test [2].

In the case of `COCc1ccc(-c2nnc(Cc3ccc(OCc4ccccc4)cc3)o2)c(N)n1` [Example 11], the minimum inhibitory concentration (MIC) in test [1] is 6.25 µg/mL (≈ 15.5 µM); in test [2], 3.13 µg/mL (≈ 7.78 µM).

For `Nc1ncccc1-n1cc(Cc2ccc(OCc3ccccc3)cc2)nn1` [Example 12, 3-(4-(4-Benzyloxy-benzyl)-[1,2,3]triazol-1-yl)-pyridin-2-ylamine], the MIC in test [1] and in test [2] was 0.2 µg/mL (≈ 0.56 µM) each time.

Consider `Nc1ncccc1-c1noc(Cc2ccc(OCc3ccccc3)cc2)n1` [Example 13, 3-(5-(4-Benzyloxy-benzyl)-[1,2,4]-oxadiazol-3-yl)-pyridin-2-ylamine], for which the MIC in test [1] and in test [2] was 1.56 µg/mL (≈ 4.35 µM) each time.

Consider `Nc1ncccc1-c1ncn(Cc2ccc(OCc3ccccc3)cc2)n1` [Example 14, 3-(1-(4-Benzyloxy-benzyl)-1H-[1,2,4]triazol-3-yl)-pyridin-2-ylamine], for which the MIC is 6.25 µg/mL (≈ 17.5 µM) in test [1] and > 25 µg/mL in test [2].

As for `Nc1ncccc1-c1nnc(Cc2ccc(OCc3ccccc3)cc2)[nH]1` [Example 15, 3-(5-(4-Benzyloxy-benzyl)-4H-[1,2,4]triazol-3-yl)-pyridin-2-ylamine], the minimal inhibitory concentration (MIC) in test [1] is 6.25 µg/mL (≈ 17.5 µM); in test [2], 3.13 µg/mL (≈ 8.76 µM).

With `Nc1ncccc1-c1cn(Cc2ccc(Cc3ccc(Cl)o3)cc2)nn1` [Example 16, 3-(1-(4-(5-Chloro-furan-2-ylmethyl)-benzene)-1H-[1,2,3]triazol-4-yl)-pyridin-2-ylamine], the minimum inhibitory concentration (MIC) in test [1] was determined as 0.05 µg/mL (≈ 0.137 µM); in test [2], 0.78 µg/mL (≈ 2.13 µM).

Consider `Cc1ccc(-c2cn(Cc3ccc(Cc4ccc(Cl)o4)cc3)nn2)cn1` [Example 17, 5-(1-(4-(5-Chloro-furan-2-ylmethyl)-benzyl)-1H-[1,2,3]triazol-4-yl)-2-methyl-pyridine], for which the minimum inhibitory concentration (MIC) in test [1] was determined as 3.13 µg/mL (≈ 8.58 µM); in test [2], 0.78 µg/mL (≈ 2.14 µM).

On to `COCc1ccc(-c2cn(Cc3ccc(Cc4ccc(Cl)o4)cc3)nn2)c(N)n1` [Example 19, 3-(1-(4-(5-Chloro-furan-2-ylmethyl)-benzyl)-1H-[1,2,3]triazol-4-yl)-6-methoxymethyl-pyridin-2-ylamine], for which the minimum inhibitory concentration (MIC) in test [1] stood at 0.39 µg/mL (≈ 0.952 µM); in test [2], 3.13 µg/mL (≈ 7.64 µM).

For the molecule `Nc1ncccc1-c1nnn(Cc2ccc(Cc3ccc(Cl)o3)cc2)n1` [Example 21, 3-(2-(4-(5-Chloro-furan-2-ylmethyl)-benzyl)-2H-tetrazol-5-yl)-pyridin-2-ylamine], the minimum inhibitory concentration (MIC) in test [1] and in test [2] was 0.39 µg/mL (≈ 1.06 µM) in each case.

In the case of `Nc1ccc(-c2nnn(Cc3ccc(Cc4ccc(Cl)o4)cc3)n2)c(N)n1` [Example 22, 3-(2-(4-(5-Chloro-furan-2-ylmethyl)-benzyl)-2H-tetrazol-5-yl)-pyridin-2,6-diamine], the MIC in test [1] turned out to be 0.39 µg/mL (≈ 1.02 µM); in test [2] it was 1.56 µg/mL (≈ 4.09 µM).

Take `Nc1ncccc1-c1noc(Cc2ccc(OCc3ccccn3)cc2)n1` [Example 23]: the MIC was 1.56 µg/mL (≈ 4.34 µM) in test [1] and 6.25 µg/mL (≈ 17.4 µM) in test [2].

With `Nc1ncccc1-c1nnc(Cc2ccc(OCc3ccccn3)cc2)o1` [Example 24], the minimum inhibitory concentration (MIC) amounted to 1.56 µg/mL (≈ 4.34 µM) in test [1] and 6.25 µg/mL (≈ 17.4 µM) in test [2].

Regarding `Nc1ncccc1-c1cn(Cc2ccc(COc3ccccn3)cc2)nn1` [Example 26, 3-(1-(4-(Pyridin-2-yloxymethyl)-benzyl)-1H-[1,2,3]triazol-4-yl)-pyridin-2-ylamine], the values for the MIC in test [1] and in test [2] were 0.05 µg/mL (≈ 0.14 µM) and 0.39 µg/mL (≈ 1.09 µM), respectively.

In the case of `Nc1ncccc1-c1cn(Cc2cccc(Oc3ccccc3)c2)nn1` [Example 28, 3-(1-(3-Phenoxy-benzyl)-1H-[1,2,3]triazol-4-yl)-pyridin-2-ylamine], the MIC in test [1] came to 0.1 µg/mL (≈ 0.291 µM); in test [2] it was 1.56 µg/mL (≈ 4.54 µM).

Turning to `Nc1ccc(-c2cn(Cc3cccc(Oc4ccccc4)c3)nn2)cn1` [Example 29, 5-(1-(3-Phenoxy-benzyl)-1H-[1,2,3]triazol-4-yl)-pyridin-2-ylamine], the MIC was found to be 0.39 µg/mL (≈ 1.14 µM) in test [1] and 1.56 µg/mL (≈ 4.54 µM) in test [2].

For the molecule `Nc1ncccc1-c1nnn(Cc2cccc(Oc3ccccc3)c2)n1` [Example 31, 3-(2-(3-Phenoxy-benzyl)-2H-tetrazol-5-yl)-pyridin-2-ylamine], the MIC amounted to 0.39 µg/mL (≈ 1.13 µM) in test [1] and 0.78 µg/mL (≈ 2.26 µM) in test [2].

As for `Nc1ncccc1-c1cn(Cc2ccc(Oc3ccccc3)cc2)nn1` [Example 32, 3-(1-(4-Phenoxy-benzyl)-1H-[1,2,3]triazol-4-yl)-pyridin-2-ylamine], the values for the MIC in test [1] and in test [2] were 0.1 µg/mL (≈ 0.291 µM) and 0.39 µg/mL (≈ 1.14 µM), respectively.

Take `Nc1ncccc1-c1nnn(Cc2ccc(Oc3ccccc3)cc2)n1` [Example 35, 3-(2-(4-Phenoxy-benzyl)-2H-tetrazol-5-yl)-pyridin-2-ylamine]: the minimal inhibitory concentration (MIC) in test [1] was determined as 1.56 µg/mL (≈ 4.53 µM); in test [2], 0.78 µg/mL (≈ 2.26 µM).

For `Nc1ncccc1-c1cn(Cc2ccc(COc3ccccc3)cn2)nn1` [Example 37, 3-(1-(5-Phenoxymethyl-pyridin-2-ylmethyl)-1H-[1,2,3]triazol-4-yl)-pyridin-2-ylamine], the minimum inhibitory concentration (MIC) in test [1] was determined as 0.2 µg/mL (≈ 0.558 µM); in test [2], 1.56 µg/mL (≈ 4.35 µM).

As to `Nc1ccc(-c2nnn(Cc3ccc(OCc4ccccc4)cn3)n2)c(N)n1` [Example 40, 3-(2-(5-Benzyloxy-pyridin-2-ylmethyl)-2H-tetrazol-5-yl)-pyridin-2,6-diamine], the results for the MIC in test [1] and in test [2] were 1.56 µg/mL (≈ 4.17 µM) and > 25 µg/mL, respectively.

For the molecule `CCCCOc1ccc(Cc2nnc(-c3cccnc3N)o2)cc1` [Example 45, 3-(5-(4-Butoxy-benzyl)-[1,3,4]oxadiazol-2-yl)-pyridin-2-ylamine], the minimum inhibitory concentration (MIC) is 6.25 µg/mL (≈ 19.3 µM) in test [1] and 12.5 µg/mL (≈ 38.5 µM) in test [2].

(Values after patent US8183264B2, “Pyridine derivative substituted by heteroaryl ring, and antifungal agent comprising the same” (Eisai R&D Managment Co., Ltd., priority 2006, dated 2012).)
